Patent US11851389B2, “Cationic lipids for nucleic acid delivery and preparation thereof” (RAMOT AT TEL-AVIV UNIVERSITY LTD., priority 2016, dated 2023)
Entries after “also recorded” stand apart in the source; their conditions may differ.

Tests used:
[1] = tested on: Human multiple myeloma suspension cells (U266); test: Cell viability after PLK1 silencing, XTT assay; format: cell-based; settings: U266, 48 hrs
Experimental: Human multiple myeloma suspension cells (U266) were incubated with siPLK1-LNPs or siCtl-LNPs composed of either lipid 38 or 55 at different concentrations for 48 hrs. Cell viability affected by PLK1 down regulation was measured by XTT assay.

[2] = tested on: Human colon carcinoma cells (HCT116); test: Toxicity of LNPs with ctl siRNA, XTT cell viability; format: cell-based; settings: 72 hrs
Experimental: Human colon carcinoma cells (HCT116) were incubated with LNPs with ctl siRNA (see methods) for 72 hrs. The cell viability was measured by XTT assay. Toxicity of LNPs composed of either lipid 38 or lipid 55 is compared with gold standard LNPs composed of Dlin-MC3-DMA.

[3] = tested on: Human colon carcinoma cells (HCT 116); test: In vitro expression of LUC pDNA, luminometer; format: cell-based; settings: HCT 116, LNPs-LUC pDNA with DOPE, Chol, PEG-DMG, 48 hrs
Experimental: Human colon carcinoma cells (HCT 116) were incubated with LNPs-LUC pDNA at different concentrations for 48 hrs. Luciferase expression was measured by luminometer. Lipofectamine 2000 (Lipo 2000) was used as positive control. LNPs were composed of lipid 38 and different amounts of co-lipid DOPE, along with other co-lipids such as Chol, PEG-DMG.

Cynomolgus monkeys = test: Liver toxicity (serum ALT, AST) in non-human primate; format: in vivo; settings: single i.v. 0.5 mg/kg, particles with siNC5, serum at 1 and 24 h, compared with MC3
Experimental: Cynomolgus monkeys (n=2 per group, males) received a single I.v. administration (1 ml/kg) of (0.5 mg/kg) of MC3 particles with siNC5 and lipid 38-based particles with siNC5 (0.5 mg/Kg). At 1 and 24 h post administration serum was collected at and analyzed for ALT, AST (by Roch Cobra Auto analyzer). Each data point is an average of 2 animals±SEM.

C57BL6/j mice [4] = test: In vivo delivery of luciferase mRNA to muscle cells, intramuscular, bioluminescence imaging; settings: i.m., 1 mg/kg body weight
Experimental: LNPs composed of either lipid 54 or lipid 38 formulated with luciferase mRNA were administered intramuscularly in to C57BL6/j mice at 1 mg/kg body weight. Luciferase expression was measured by bioluminescence imaging system Biospace: (a) after 8 hrs of i.m. administration; and (b) after 24 hrs. […] The expression was still high 24 hrs after the administration of LNPs indicating the efficiency of these lipids in delivering mRNA in vivo.

[5] = tested on: Human multiple myeloma suspension cells (MM1); test: Cell viability after PLK1 silencing, XTT assay; format: cell-based; settings: MM1, 48 hrs
Experimental: Human multiple myeloma suspension cells (MM1) were incubated with siPLK1-LNPs or siCtl-LNPs composed of either lipid 38 or 55 at different concentrations for 48 hrs. Cell viability affected by PLK1 down regulation was measured by XTT assay.

[6] = tested on: Human multiple myeloma suspension cells (U266); test: PLK1 expression by qPCR after siPLK1-LNPs; format: cell-based; settings: U266, 48 hrs, normalized to LNPs-ctl siRNA treated cells
Experimental: The mRNA levels of pololike kinase 1 (PLK1 gene) in cells was quantified by real-time PCR, forty eight or Seventy-two hours post-transfection. Total RNA was isolated using the E-Z RNA purification kit (Biological industries, Beit Haemek, Israel), and 1 μg of RNA from each sample was reverse transcribed into cDNA using the High Capacity cDNA Reverse Transcription Kit (Applied Biosystems, Foster City, CA), Quantification of cDNA (5 ng total) was performed on the step one Sequence Detection System (Applied Biosystems, Foster City, CA) using syber green (Applied Biosystems). GAPDH was chosen as a housekeeping gene.
Human multiple myeloma suspension cells (U266) were incubated with LNPs containing siPLK1 at different concentrations for 48 hrs. PLK1 expression was measured by qPCR. PLK1-mRNA levels were normalized to LNPs-ctl siRNA treated cells.

C57BL6/j mice [7] = test: In vivo delivery of luciferase mRNA to liver, intravenous, bioluminescence imaging; settings: intravenously, 1 mg/kg body weight
Experimental: LNPs composed of either lipid 54 or lipid 38 formulated with luciferase mRNA were administered intravenously into C57BL6/j mice at 1 mg/kg body weight. After 8 hrs, luciferase expression was measured by bioluminescence imaging system Biospace.
LNPs composed of lipid 38 formulated with luciferase mRNA were administered intravenously into C57BL6/j mice at 1 mg/kg body weight. After 8 hrs and 24 hrs of administration, luciferase expression was measured by bioluminescence imaging system Biospace.

[8] = tested on: Human B-cell lymphoma suspension cells (RPMI-8226); test: Cell viability after PLK1 silencing, XTT assay; format: cell-based; settings: RPMI-8226, 48 hrs
Experimental: Human B-cell lymphoma suspension cells (RPMI-8226) were incubated with siPLK1-LNPs or siCtl-LNPs composed of either lipid 38 or 55 at different concentrations for 48 hrs. Cell viability affected by PLK1 down regulation was measured by XTT assay.

[9] = tested on: murine macrophage cells (RAW 264.7); test: In vitro delivery of luciferase mRNA, luminometer; format: cell-based; settings: 18 hrs
Experimental: Hard to transfect murine macrophage cells (RAW 264.7) were treated with LNPs composed of either Lipid38 or Lipid 54 and formulated with luciferase mRNA at different amounts of mRNA. After 18 hrs luciferase expression was measured by luminometer.

[10] = LNP size distribution, PDI and ζ potential by dynamic light scattering; format: physicochemical; settings: LNP-siRNA formulations
Experimental: LNPs were prepared by using microfluidic micro mixture (Precision NanoSystems, Vancouver, BC, Canada) as described by Cohen et. al. One volume of lipid mixtures (cationic lipid, DSPC, Chol, DMG-PEG and DSPE-PEG Mal at 50:10:38:1.5:0.5 mole ratio, […] total lipid concentration) in ethanol and three volumes of siRNA (1:16 w/w siRNA to lipid) containing acetate buffer solutions were injected through the micro mixer at a combined flow rate of 2 mL/minute (0.5 mL/min for ethanol and 1.5 mL/min for aqueous buffer). For labeled LNPs, 10% of Alexa-647 labeled siRNA were incorporated. For Cy5 labeled particles, 10% Cy5 labeled non-targeted siRNA was used. The resultant mixture was dialyzed against PBS (pH 7.4) for 16 h to remove ethanol.
LNPs size distribution and ζ potential were determined by dynamic light scattering using a Malvern nano ZS ζ-sizer (Malvern instruments, UK). For size measurements, LNPs were diluted 1:20 in PBS. […] For ζ potential measurements, LNPs were diluted 1:200 in DDW. In some cases, as indicated, size and zeta potential measurements were performed in water.

## CCCCC/C=C\C/C=C\CCCCCCCCN(CCCCCCCC/C=C\C/C=C\CCCCC)CCOC(=O)CCCN(C)C [Lipid 38]
[1]
  Cell viability, siCtl-LNPs: no effect on the cell viability
  Cell viability, siPLK1-LNPs: more effect on cell viability compared to Dlin-MC3-DMA LNPs
[2]
  Toxicity of LNPs (cell viability): less toxic than LNPs composed of Dlin-MC3-DMA
[3]
  Delivery of pDNA to the nucleus: efficiently delivering pDNA to the nucleus
Cynomolgus monkeys
  Liver toxicity (ALT, AST): No liver toxicity
C57BL6/j mice [4]; 8 hrs
  Luciferase expression after 8 hrs: significant amounts of luciferase
C57BL6/j mice [4]; 24 hrs
  Luciferase expression after 24 hrs: still high
[5]
  Cell viability, siCtl-LNPs: no effect on the cell viability
  Cell viability, siPLK1-LNPs: dose dependent effect on multiple myeloma cancer cell viability
[6]
  PLK1 expression, siPLK1-LNPs: efficiently down regulate
C57BL6/j mice [7]
  Luciferase expression in liver, 8 hrs versus 24 hrs: high after 8 hrs compared to after 24 hrs
C57BL6/j mice [7]; 8 hrs, 1 mg/kg
  Luciferase expression in liver: significant amount of luciferase in mouse liver compared to LNPs composed of lipid 54; also recorded: significant amount of luciferase expression was observed in liver
[8]
  Cell viability, siCtl-LNPs: no effect on the cell viability
  Cell viability, siPLK1-LNPs: dose dependent effect on B-cell lymphoma cancer cell viability
[9]; RAW 264.7, different amounts of mRNA
  Dose dependence of luciferase expression: dose dependent expression was observed
[9]; RAW 264.7, luciferase mRNA LNPs
  Luciferase expression: efficiently compared to lipid 54-LNPs
[10]
  Zeta-potential (mV): 6.7 mV
[10]; DLS
  PDI: 0.08
  Size (d · nm): 59.0 nm
